Data reported in patent US8569265B2, “Deuterated analogs of (4S)-4-ethyl-4-hydroxy-11-[2- (trimethylsilyl)ethyl]-1H-pyrano[3′, 4′:6,7] indolizino [1,2-b]quinoline-3,14(4H, 12H)-dione and methods of use thereof” (BioNumerik Pharmaceuticals, Inc., priority 2011, dated 2013).
Like-named read-outs stand apart in the source and are kept apart here.

Legend:
[1] = system: malignant melanoma and carcinoma cells (colon carcinoma, glioblastoma, and small lung cell cancer cells); conditions: cited from earlier work
[2] = system: PHA-stimulated lymphocytes and normal glial cells; conditions: 90% D2O; cited from earlier work
[3] = system: wild-type human ovarian cancer cells (A2780/WT); assay: Sulforhodamine B (SRB) cytotoxicity assay, A2780/WT; assay type: cell-based; conditions: for IC50: Homo sapiens, A2780/WT, 2 hour drug treatments; for IC50 values in words (inhibition of cell growth): wild-type (A2780/WT) ovarian cancer cells
From the text: (§1) The sulforhodamine B (SRB) assay was used to assess cytotoxicity and absorbance at 570 nm (A570) in order to calculate the percentage of cell control (or percent cell survival) for wild-type human ovarian cancer cells (A2780/WT) and doxorubicin-resistant human ovarian cancer cells (A2780/DX5) treated with BNP1350, BNP10120 (a di-deuterated analog of BNP1350) and BNP10121 (a tetra-deuterated analog of BNP1350).
(§2) Roswell Park Memorial Institute (RPMI 1640) medium, fetal bovine serum (FBS), and L-glutamine were purchased from Gibco BRL. Drugs were dissolved in sterile dimethylsulfoxide (DMSO), from American Type Culture Collection (ATCC) for stock solutions (2.5 to 5.0 mM). Subsequent dilutions were made using cell culture medium (prior to adding the drug to cells). SRB was purchased from Sigma and dissolved in 1.0 percent acetic acid. Trichloroacetic acid was purchased from VWR International. BNP1350, BNP10120 (a di-deuterated analog of BNP1350) and BNP10121 (a tetra-deuterated analog of BNP1350) were synthesized and purified by BioNumerik Pharmaceuticals, Inc.
(§3) Cells were manipulated in a Class IIA/B3 Biological Safety Cabinet (Forma Scientific) and maintained at 37° C. in a humidified atmosphere containing 5% CO2 in a water-jacketed cell culture incubator (Forma Scientific). Cells were counted using a Coulter-Z1 counter (Beckman-Coulter). Following drug treatment, plates were washed using a Biomek 2000 station (Beckman) and, following exposure to SRB dye, plates were washed using an automated plate washer (Model EL404, Bio-Tek Instruments). Percentage of control was correlated to A570 values and determined using a Model EL800 plate reader (Bio-Tek Instruments).
(§4) Wild-type human ovarian cancer cells (A2780/WT) and doxorubicin-resistant human ovarian cancer cells (A2780/DX5) were cultured in RPMI 1640 medium supplemented with 10% fetal bovine serum and 2 mM L-glutamine, and grown in a 37° C. incubator with 5% CO2. Population doubling times for the two cell lines used in this study encompassed a total of five cell doublings corresponding to approximately 5 days for A2780/WT and A2780/DX5 cells. Both cell lines were maintained as monolayered cultures in T-25 or T-75 flasks and then seeded to microtiter plate wells for experiments described herein.
(§5) In brief, cells were seeded (500 cells/well in 100 μL total volume) into 96-well microtiter plates and allowed to attach for 24 hours prior to treatment with BNP1350, BNP10120 or BNP10121 for 2 hours. The aforementioned compounds were dissolved in DMSO for use in cytotoxicity experiments where inhibition of cell growth was measured using the SRB assay.
(§6) Following this 2 hour drug treatment, the BNP1350, BNP10120 and BNP10121 were removed, cells were washed with drug-free media (200 μL) and then drug-free media (200 μL) was added to the cells and cells were allowed to continue growing at 37° C. with 5% CO2 before the SRB assay was performed (total experiment time from time of seeding was 5 days, during which time a total of 5 cell doublings had occurred).
(§7) Prior to SRB assays, cell viability was monitored by evaluation of microtiter plate wells. Dead cells detach and float while living cells remain attached to the bottom of the cell well.
(§8) The sulforhodamine B (SRB) cytotoxicity assay (see, Skehan P, et al., New colorimetric cytotoxicity assay for anticancer-drug screening. J. Natl. Cancer Inst. 82:1107-1112 (1990)) was used to determine the cytotoxic effects of BNP1350, BNP10120 or BNP10121 on cell growth in vitro. Briefly, after the medium was aspirated from individual plate wells, trichloroacetic acid (100 μL of 10.0% solution) was added to each well, and the plates were incubated at 4° C. for at least 1 hour. The plates were washed five-times with water using an automated microplate washer (Model EL 404, Bio-Tek Instruments), SRB solution (100 μL of 0.4 grams SRB dissolved in 100 mL 1.0 percent acetic acid) was added, and plates remained at room temperature for 15 minutes. […]

[4] = system: doxorubicin-resistant human ovarian cancer cells (A2780/DX5); assay: Sulforhodamine B (SRB) cytotoxicity assay, A2780/DX5; assay type: cell-based; conditions: for IC50: Homo sapiens, A2780/DX5, 2 hour drug treatments; for IC50 values in words (inhibition of cell growth): doxorubicin resistant (A2780/DX5) ovarian cancer cells
From the text: as §1, §2, §3, §4, §5, §6, §7, §8

[5] = clinical trial; cited from earlier work
[6] = average of Test 1 and Test 2, read-out: IC50 Average

Compound | cells killed ([1]; 90% D2O, malignant melanoma and carcinoma cells) [%] | viable fraction of malignant cells ([1]; 9 days of treatment with 90% D2O) | cells killed [2] [%] | IC50 [3, 6] [nM] | IC50 ([3]; read-out: IC50 Test 1) [nM] | IC50 ([3]; read-out: IC50 Test 2) [nM] | IC50 values in words (inhibition of cell growth) [3] | IC50 [4, 6] [nM] | IC50 ([4]; read-out: IC50 Test 1) [nM] | IC50 ([4]; read-out: IC50 Test 2) [nM] | IC50 values in words (inhibition of cell growth) [4] | rate of metabolism relative to Effexor [5] | time after which pharmacologically-effective levels of the drug were maintained [5] [hours]
[2H]O[2H] [D2O] | 70 | about 0.1% | 5 |  |  |  |  |  |  |  |  |  | 
[2H]C([2H])(c1c2c(nc3ccccc13)-c1cc3c(c(=O)n1C2)COC(=O)[C@]3(O)CC)C([2H])([2H])[Si](C)(C)C [BNP10121, (S)-4-Ethyl-4-hydroxy-11-[1,1,2,2-tetradeutero-2-(trimethylsilyl)ethyl]-1H-pyrano[3′,4′:6,7]indolizino[1,2-b]quinoline-3,14(4H,12H)-dione] |  |  |  | 6.1 | 6.1 | 6 | nanomolar | 11.7 | 12 | 11.3 | nanomolar |  | 
CC[C@@]1(O)C(=O)OCc2c1cc1n(c2=O)Cc2c-1nc1ccccc1c2CC[Si](C)(C)C [BNP1350, (4S)-4-Ethyl-4-hydroxy-11-[2-(trimethylsilyl)ethyl]-1H-pyrano[3′,4′:6,7]indolizino[1,2-b]quinoline-3,14(4H,12H)-dione, reference compound] |  |  |  | 1.9 | 1.9 | 1.8 | nanomolar | 7.3 | 7.7 | 6.9 | nanomolar |  | 
[2H]C1([2H])c2c(nc3ccccc3c2CC[Si](C)(C)C)-c2cc3c(c(=O)n21)COC(=O)[C@]3(O)CC [BNP10120, (4S)-12,12-Dideutero-4-ethyl-4-hydroxy-11-[2-(trimethylsilyl)ethyl]-1H-pyrano[3′,4′:6,7]indolizino[1,2-b]quinoline-3,14(4H,12H)-dione] |  |  |  | 2.6 | 3.5 | 1.6 | nanomolar | 8.5 | 9.9 | 7.1 | nanomolar |  | 
[2H]C([2H])([2H])Oc1ccc(C(CN(C([2H])([2H])[2H])C([2H])([2H])[2H])C2(O)CCCCC2)cc1 (centres unmarked) [SD-254] |  |  |  |  |  |  |  |  |  |  |  | half as fast | 24
